Measurements from US6589984B1, “Benzofurylpyrone derivatives” (Teijin Limited, priority 1998, dated 2003).

Test system: Human hepatic cancer cells HepG2
Test: TG production inhibiting activity (14C-acetic acid incorporation into TG) in HepG2 cells
Type: cell-based
Conditions: Homo sapiens, HepG2; group criterion, alternatives: IC50 at least 10 μM and less than 100 μM, or at least 5% and less than 30% inhibition at 1 μM, or at least 30% and less than 50% inhibition at 10 μM
Procedure: Human hepatic cancer cells HepG2 were inoculated into a 24-well plate (Costar No. 3524) at 4×10^4 cells/well, and 1 ml of medium (eRDF medium containing 10% bovine serum (Kyokuto Chemical Co.)) was used for 6 day culturing with 5% CO2 at 37° C. After drawing off the supernatant medium, the cells were freshly rinsed with 1 ml of PBS(−) buffer solution (Takara Shuzo) and drawn off. This procedure was repeated twice and then 1 ml of fresh medium (eRDF medium) was added.
6-(benzofuran-2-yl)-3,5-dimethyl-4-hydroxy-2H-pyran-2-one (Example 2) was dissolved in dimethylsulfoxide (DMSO) to prepare a 20 mM sample stock solution. A diluted solution was obtained by diluting the sample solution with DMSO.
To the cells prepared above there were added the sample stock solution or its diluted solution at 5 μl per well and 10 μl of ^14C-acetic acid solution (a solution of Amersham Code No. CFA13 diluted 4.4-fold with PBS(−) buffer), and culturing was carried out for one day with 5% CO2 at 37° C.
After the culturing was completed, the culture solution was removed, and 1 ml of extraction solution (a mixture of n-hexane and isopropyl alcohol at 2:1) was added for extraction treatment on the lipid components in the cells. After the treatment, the extract containing the obtained lipid components was air-dried, the residue was redissolved in 20 μl of a mixed solution of n-hexane and ethyl acetate at 9:1, and the solution was spotted on a thin-layer chromatography plate (S319, Tokyo Kasei) and developed by thin-layer chromatography with the mixed solution mentioned above. After air-drying, the lipid components were colored with iodine vapor, the portion corresponding to TG was cut out, and the amount of TG biosynthesized was measured with a liquid scintillation counter.

Row | Structure (SMILES) | IC50
1 | Cc1c(O)c(Oc2ccccc2)c(-c2cc3ccccc3o2)oc1=O [Example 67, 6-(benzofuran-2-yl)-4-hydroxy-3-methyl-5-phenoxy-2H-pyran-2-one] | 10 to 100 µM
2 | COC(=O)c1ccc2cc(-c3oc(=O)c(C)c(O)c3C)oc2c1 [Example 22, 3,5-dimethyl-4-hydroxy-6-(6-(methoxycarbonyl)benzofuran-2-yl)-2H-pyran-2-one] | 10 to 100 µM
3 | Cc1c(-c2cc3cc(OCc4nccs4)ccc3o2)oc(=O)c(C)c1O [Example 60, 4-hydroxy-3,5-dimethyl-6-(5-(2-thiazolylmethoxy)benzofuran-2-yl)-2H-pyran-2-one] | 10 to 100 µM
4 | COc1ccc(C(=O)Oc2ccc3oc(-c4oc(=O)c(C)c(OC(C)=O)c4C)cc3c2)cc1 [Example 263, 4-acetyloxy-3,5-dimethyl-6-(5-(4-methoxybenzoyloxy)benzofuran-2-yl)-2H-pyran-2-one] | 10 to 100 µM
5 | C=CCCCCOc1ccc2oc(-c3oc(=O)c(C)c(O)c3C)cc2c1 [Example 191, 3,5-dimethyl-6-(5-(5-hexen-1-yloxy)benzofuran-2-yl)-4-hydroxy-2H-pyran-2-one] | 10 to 100 µM
6 | COc1ccc2cc(-c3oc(=O)c(C)c(OC(C)=O)c3C)oc2c1 [Example 273, 4-acetyloxy-3,5-dimethyl-6-(6-methoxybenzofuran-2-yl)-2H-pyran-2-one] | 10 to 100 µM
7 | COC(=O)CCOc1ccc2cc(-c3oc(=O)c(C)c(OC(C)=O)c3C)oc2c1 [Example 278, 4-acetyloxy-3,5-dimethyl-6-(6-(2-(methoxycarbonyl)ethoxy)benzofuran-2-yl)-2H-pyran-2-one] | 10 to 100 µM
8 | Cc1c(-c2cc3cc(O)ccc3o2)oc(=O)c(C)c1O [Example 262, 3,5-dimethyl-4-hydroxy-6-(5-hydroxybenzofuran-2-yl)-2H-pyran-2-one] | 10 to 100 µM
9 | CC(=O)Oc1c(C)c(-c2cc3cc(C(=O)Nc4ccccc4)ccc3o2)oc(=O)c1C [Example 295, 4-acetyloxy-3,5-dimethyl-6-(5-(phenylcarbamoyl)benzofuran-2-yl)-2H-pyran-2-one] | 10 to 100 µM
10 | Cc1c(-c2cc3cc(N(C)C(=O)c4cccnc4)ccc3o2)oc(=O)c(C)c1O [Example 253, 3,5-dimethyl-4-hydroxy-6-(5-(N-methyl-N-(3-pyridylcarbonyl)amino)benzofuran-2-yl)-2H-pyran-2-one] | 10 to 100 µM
11 | Cc1c(-c2cc3ccccc3o2)oc(=O)c(C)c1OS(=O)(=O)C(F)(F)F [Example 43, 6-(benzofuran-2-yl)-3,5-dimethyl-4-trifluoromethanesulfonyloxy-2H-pyran-2-one] | 10 to 100 µM
12 | COc1c(-c2cc3ccccc3o2)oc(=O)c(C)c1O [Example 37, 6-(benzofuran-2-yl)-4-hydroxy-5-methoxy-3-methyl-2H-pyran-2-one] | 10 to 100 µM
13 | CCOC(=O)CCCCCOc1ccc2oc(-c3oc(=O)c(C)c(O)c3C)cc2c1 [Example 217, 3,5-dimethyl-6-(5-(5-(ethoxycarbonyl)pentyloxy)benzofuran-2-yl)-4-hydroxy-2H-pyran-2-one] | 10 to 100 µM
14 | Cc1c(-c2cc3cc(OCC(c4ccccc4)c4ccccc4)ccc3o2)oc(=O)c(C)c1O [Example 195, 3,5-dimethyl-6-(5-(2,2-diphenylethoxy)benzofuran-2-yl)-4-hydroxy-2H-pyran-2-one] | 10 to 100 µM
15 | CC#CCOc1ccc2oc(-c3oc(=O)c(C)c(O)c3C)cc2c1 [Example 181, 6-(5-(2-butyn-1-yloxy)benzofuran-2-yl)-3,5-dimethyl-4-hydroxy-2H-pyran-2-one] | 10 to 100 µM
16 | CCNc1ccc2oc(-c3oc(=O)c(C)c(O)c3C)cc2c1 [Example 46, 3,5-dimethyl-6-(5-(ethylamino)benzofuran-2-yl)-4-hydroxy-2H-pyran-2-one] | 10 to 100 µM
17 | CC(=O)OCCOc1ccc2cc(-c3oc(=O)c(C)c(OC(C)=O)c3C)oc2c1 [Example 280, 4-acetyloxy-6-(6-(2-(acetyloxy)ethoxy)benzofuran-2-yl)-3,5-dimethyl-2H-pyran-2-one] | 10 to 100 µM
18 | Cc1c(-c2cc3cc(OCC4COc5ccccc5O4)ccc3o2)oc(=O)c(C)c1O (stereo not shown) [Example 177, 6-(5-(1,4-benzodioxan-2-ylmethoxy)benzofuran-2-yl)-3,5-dimethyl-4-hydroxy-2H-pyran-2-one] | 10 to 100 µM
19 | Cc1c(-c2cc3ccc(O)cc3o2)oc(=O)c(C)c1O [Example 272, 3,5-dimethyl-4-hydroxy-6-(6-hydroxybenzofuran-2-yl)-2H-pyran-2-one] | 10 to 100 µM
20 | CC(=O)Oc1c(C)c(-c2cc3ccccc3o2)oc(=O)c1C(C)C [Example 287, 4-acetyloxy-6-(benzofuran-2-yl)-3-isopropyl-5-methyl-2H-pyran-2-one] | 10 to 100 µM
21 | COc1cccc2oc(-c3oc(=O)c(C)c(O)c3C)cc12 [Example 267, 3,5-dimethyl-4-hydroxy-6-(4-methoxybenzofuran-2-yl)-2H-pyran-2-one] | 10 to 100 µM
22 | CC(=O)Oc1c(C)c(-c2cc3cc(O)ccc3o2)oc(=O)c1C [Example 261, 4-acetyloxy-3,5-dimethyl-6-(5-hydroxybenzofuran-2-yl)-2H-pyran-2-one] | 10 to 100 µM
23 | Cc1c(-c2cc3cc(OC(C)c4ccccc4C(F)(F)F)ccc3o2)oc(=O)c(C)c1O (stereo not shown) [Example 144, 3,5-dimethyl-4-hydroxy-6-(5-(1-(2-(trifluoromethyl)phenyl)ethoxy)benzofuran-2-yl)-2H-pyran-2-one] | 10 to 100 µM
24 | CC(=O)Oc1c(C)c(-c2cc3cccc(OC(C)=O)c3o2)oc(=O)c1C [Example 284, 4-acetyloxy-6-(7-acetyloxybenzofuran-2-yl)-3,5-dimethyl-2H-pyran-2-one] | 10 to 100 µM

Same assay, conditions: Homo sapiens, HepG2; group criterion, alternatives: IC50 less than 10 μM, or at least 30% inhibition at 1 μM, or at least 50% inhibition at 10 μM

Row | Structure (SMILES) | IC50
25 | Cc1ccc(COc2ccc3oc(-c4oc(=O)c(C)c(O)c4C)cc3c2)cc1C [Example 134, 6-(5-(3,4-dimethylbenzyloxy)benzofuran-2-yl)-3,5-dimethyl-4-hydroxy-2H-pyran-2-one] | < 10 µM
26 | CC(=O)Nc1ccc(C(=O)Oc2c(C)c(-c3cc4ccccc4o3)oc(=O)c2C)cc1 [Example 76, 4-(4-(acetylamino)benzoyloxy)-6-(benzofuran-2-yl)-3,5-dimethyl-2H-pyran-2-one] | < 10 µM
27 | COc1ccc2oc(-c3oc(=O)c(C)c(OC(C)=O)c3C)cc2c1 [Example 268, 4-acetyloxy-3,5-dimethyl-6-(5-methoxybenzofuran-2-yl)-2H-pyran-2-one] | < 10 µM
28 | CC(=O)NC(CC(=O)N1CCOCC1)C(=O)Oc1c(C)c(-c2cc3ccccc3o2)oc(=O)c1C (stereo not shown) [Example 64, 6-(benzofuran-2-yl)-3,5-dimethyl-4-(2-acetylamino-4-(morpholin-4-yl)-4-oxobutyryloxy)-2H-pyran-2-one] | < 10 µM
29 | Cc1c(-c2cc3cc(OCc4ccccc4C(F)(F)F)ccc3o2)oc(=O)c(C)c1O [Example 120, 3,5-dimethyl-4-hydroxy-6-(5-(2-(trifluoromethyl)benzyloxy)benzofuran-2-yl)-2H-pyran-2-one] | < 10 µM
30 | Cc1c(-c2cc3cc(OCc4ccc(Cl)c(Cl)c4)ccc3o2)oc(=O)c(C)c1O [Example 159, 6-(5-(3,4-dichlorobenzyloxy)benzofuran-2-yl)-3,5-dimethyl-4-hydroxy-2H-pyran-2-one] | < 10 µM
31 | COCOc1ccc2cc(-c3oc(=O)c(C)c(O)c3C)oc2c1 [Example 291, 3,5-dimethyl-4-hydroxy-6-(6-methoxymethoxybenzofuran-2-yl)-2H-pyran-2-one] | < 10 µM
32 | Cc1c(-c2cc3cc(N(C)S(=O)(=O)c4ccc(Cl)cc4)ccc3o2)oc(=O)c(C)c1O [Example 297, 6-(5-(N-(4-chlorophenylsulfonyl)-N-methylamino)benzofuran-2-yl)-3,5-dimethyl-4-hydroxy-2H-pyran-2-one] | < 10 µM
33 | CC(=O)Oc1c(C)c(-c2cc3cccc(OCc4ccccc4)c3o2)oc(=O)c1C [Example 285, 4-acetyloxy-6-(7-benzyloxybenzofuran-2-yl)-3,5-dimethyl-2H-pyran-2-one] | < 10 µM
34 | Cc1c(-c2cc3ccccc3o2)oc(=O)c(C)c1OC(=O)CCc1ccccc1 [Example 61, 6-(benzofuran-2-yl)-3,5-dimethyl-4-(3-phenylpropionyloxy)-2H-pyran-2-one] | < 10 µM
35 | Cc1c(-c2cc3cc(N(C)C(=O)Cc4ccccc4)ccc3o2)oc(=O)c(C)c1O [Example 251, 3,5-dimethyl-4-hydroxy-6-(5-(N-methyl-N-(phenylacetyl)amino)benzofuran-2-yl)-2H-pyran-2-one] | < 10 µM
36 | Cc1c(-c2cc3cc(OCc4cncnc4)ccc3o2)oc(=O)c(C)c1O [Example 27, 3,5-dimethyl-4-hydroxy-6-(5-(5-pyrimidinylmethoxy)benzofuran-2-yl)-2H-pyran-2-one] | < 10 µM
37 | CCc1c(-c2cc3cc(OCc4ccccc4)ccc3o2)oc(=O)c(C)c1O [Example 57, 6-(5-benzyloxybenzofuran-2-yl)-5-ethyl-4-hydroxy-3-methyl-2H-pyran-2-one] | < 10 µM
